From paper PMC9611727, “Optimization of a Novel Mandelamide-Derived Pyrrolopyrimidine Series of PERK Inhibitors” (Pharmaceutics, 2022) come the findings set out here.

Common to all, as to assay: scanMAX kinase panel
Holding throughout (type): binding

One experiment deals with FLT3(ITD,F691L). The source says: (§1) Supplemental Table S2. scanMAXSM Kinome Assay Results. Complete tabulated data of all 468 kinases from the panel, including
(§2) 403 wild-type and 65 mutant isoforms. […] Cmpd 11 and Cmpd 24

The next experiment addresses T1, NEK5 (Homo sapiens, UniProt Q6P3R8).
T1 construct: purchased DiscoverX scanMAX
T1 sequence (Q6P3R8 1-708): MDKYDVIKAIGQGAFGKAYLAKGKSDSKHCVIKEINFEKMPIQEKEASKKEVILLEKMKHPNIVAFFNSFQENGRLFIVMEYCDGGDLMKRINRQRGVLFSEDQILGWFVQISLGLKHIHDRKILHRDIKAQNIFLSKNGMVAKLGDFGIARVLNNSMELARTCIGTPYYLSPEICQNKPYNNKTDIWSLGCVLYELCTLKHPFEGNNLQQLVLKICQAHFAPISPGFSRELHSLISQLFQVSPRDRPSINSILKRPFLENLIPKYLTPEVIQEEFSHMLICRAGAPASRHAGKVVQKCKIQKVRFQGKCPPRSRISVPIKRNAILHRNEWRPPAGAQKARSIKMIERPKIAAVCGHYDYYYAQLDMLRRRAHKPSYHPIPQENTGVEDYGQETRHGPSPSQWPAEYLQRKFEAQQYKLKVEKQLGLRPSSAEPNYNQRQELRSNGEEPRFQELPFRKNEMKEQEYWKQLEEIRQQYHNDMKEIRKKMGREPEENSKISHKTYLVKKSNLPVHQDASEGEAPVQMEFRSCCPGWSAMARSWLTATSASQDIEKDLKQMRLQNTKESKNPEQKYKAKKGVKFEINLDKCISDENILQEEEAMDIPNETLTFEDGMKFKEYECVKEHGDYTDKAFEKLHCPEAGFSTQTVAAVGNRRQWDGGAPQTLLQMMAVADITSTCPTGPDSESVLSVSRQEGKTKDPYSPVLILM
The conditions noted are these: read-out: % Control; for remaining binding at 1 µM: 1000 nM.
Source text: as §1, §2

Another experiment deals with T2, TIE2 (Homo sapiens, UniProt Q02763).
T2 construct: purchased DiscoverX (scanMAX panel)
The conditions noted are these: read-out: % Control; for remaining binding at 1 µM: 1000 nM.
Source text: as §1, §2

The target of another experiment is T3, YANK1 (Homo sapiens, UniProt Q8WU08).
T3 construct: purchased DiscoverX (scanMAX panel)
The conditions noted are these: read-out: % Control; for remaining binding at 1 µM: 1000 nM.
Source text: as §1, §2

For a further experiment, the target named is T4, PIP5K1C (Homo sapiens, UniProt O60331).
T4 construct: purchased DiscoverX scanMAX
The conditions noted are these: read-out: % Control; for remaining binding at 1 µM: 1000 nM.
Source text: as §1, §2

In the next experiment the target is T5, EIF2AK1 (Homo sapiens, UniProt Q9BQI3).
T5 construct: purchased DiscoverX scanMAX
The conditions noted are these: read-out: % Control; for remaining binding at 1 µM: 1000 nM.
Source text: as §1, §2

The next experiment deals with T6, PIK3C2B (Homo sapiens, UniProt O00750).
T6 construct: purchased DiscoverX scanMAX
The conditions noted are these: read-out: % Control; for remaining binding at 1 µM: 1000 nM.
Source text: as §1, §2

The target in the next experiment is T7, FLT3-autoinhibited (Homo sapiens, UniProt P36888).
T7 construct: purchased DiscoverX scanMAX
T7 sequence (P36888 564-993 limits assumed): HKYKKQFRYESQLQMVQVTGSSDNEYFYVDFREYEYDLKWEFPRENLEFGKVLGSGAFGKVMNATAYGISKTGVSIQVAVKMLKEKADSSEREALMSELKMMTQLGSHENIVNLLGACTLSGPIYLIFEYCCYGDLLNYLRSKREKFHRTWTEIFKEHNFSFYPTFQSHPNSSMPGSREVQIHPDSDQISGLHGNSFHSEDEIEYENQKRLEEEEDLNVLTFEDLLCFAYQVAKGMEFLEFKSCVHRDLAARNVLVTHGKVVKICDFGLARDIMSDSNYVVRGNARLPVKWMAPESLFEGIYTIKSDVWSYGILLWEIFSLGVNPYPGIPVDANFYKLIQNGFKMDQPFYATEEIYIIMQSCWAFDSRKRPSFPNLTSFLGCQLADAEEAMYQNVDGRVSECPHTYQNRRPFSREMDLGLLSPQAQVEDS
The conditions noted are these: read-out: % Control; for remaining binding at 1 µM: 1000 nM.
Source text: as §1, §2

Another experiment has as its target T8, VRK2 (Homo sapiens, UniProt Q86Y07).
T8 construct: purchased DiscoverX (scanMAX panel)
The conditions noted are these: read-out: % Control; for remaining binding at 1 µM: 1000 nM.
Source text: as §1, §2

Another experiment deals with T9, RIOK2 (Homo sapiens, UniProt Q9BVS4).
T9 construct: purchased DiscoverX (scanMAX panel)
The conditions noted are these: read-out: % Control; for remaining binding at 1 µM: 1000 nM.
Source text: as §1, §2

The next experiment concerns the target T10, LTK (Homo sapiens, UniProt P29376).
T10 construct: purchased DiscoverX scanMAX
The conditions noted are these: read-out: % Control; for remaining binding at 1 µM: 1000 nM.
Source text: as §1, §2

Another experiment addresses T11, FLT3(K663Q) (Homo sapiens, UniProt P36888, K663Q).
T11 construct: purchased DiscoverX scanMAX
T11 sequence (P36888 27-993 K663Q): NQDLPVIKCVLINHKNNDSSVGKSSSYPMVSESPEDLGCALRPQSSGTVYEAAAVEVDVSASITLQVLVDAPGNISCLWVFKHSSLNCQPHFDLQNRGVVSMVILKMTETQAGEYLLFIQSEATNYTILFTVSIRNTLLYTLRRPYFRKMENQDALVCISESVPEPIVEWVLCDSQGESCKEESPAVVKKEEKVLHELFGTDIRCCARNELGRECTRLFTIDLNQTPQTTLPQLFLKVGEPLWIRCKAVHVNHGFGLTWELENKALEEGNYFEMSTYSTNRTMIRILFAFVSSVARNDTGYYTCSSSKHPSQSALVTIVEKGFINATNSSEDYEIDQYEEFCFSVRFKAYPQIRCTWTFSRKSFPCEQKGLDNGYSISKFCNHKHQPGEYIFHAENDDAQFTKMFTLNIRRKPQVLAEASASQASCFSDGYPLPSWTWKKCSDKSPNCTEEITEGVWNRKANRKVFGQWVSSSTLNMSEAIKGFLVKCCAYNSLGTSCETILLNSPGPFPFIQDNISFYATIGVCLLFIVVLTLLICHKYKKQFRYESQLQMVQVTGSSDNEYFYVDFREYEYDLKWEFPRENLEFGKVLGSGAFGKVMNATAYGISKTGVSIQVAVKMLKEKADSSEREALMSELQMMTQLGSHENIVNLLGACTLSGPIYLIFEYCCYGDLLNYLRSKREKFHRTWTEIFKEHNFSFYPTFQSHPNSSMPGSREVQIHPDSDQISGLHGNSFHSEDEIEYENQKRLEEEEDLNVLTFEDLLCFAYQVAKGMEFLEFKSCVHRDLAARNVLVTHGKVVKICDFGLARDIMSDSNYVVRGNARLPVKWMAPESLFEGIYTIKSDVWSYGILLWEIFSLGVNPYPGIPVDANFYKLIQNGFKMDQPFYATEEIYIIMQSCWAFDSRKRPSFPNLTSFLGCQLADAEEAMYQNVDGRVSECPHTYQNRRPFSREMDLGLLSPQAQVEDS
The conditions noted are these: read-out: % Control; for remaining binding at 1 µM: 1000 nM.
Source text: as §1, §2

SMILES strings stand for the structures.

T3 sequence (Q8WU08 whole entry): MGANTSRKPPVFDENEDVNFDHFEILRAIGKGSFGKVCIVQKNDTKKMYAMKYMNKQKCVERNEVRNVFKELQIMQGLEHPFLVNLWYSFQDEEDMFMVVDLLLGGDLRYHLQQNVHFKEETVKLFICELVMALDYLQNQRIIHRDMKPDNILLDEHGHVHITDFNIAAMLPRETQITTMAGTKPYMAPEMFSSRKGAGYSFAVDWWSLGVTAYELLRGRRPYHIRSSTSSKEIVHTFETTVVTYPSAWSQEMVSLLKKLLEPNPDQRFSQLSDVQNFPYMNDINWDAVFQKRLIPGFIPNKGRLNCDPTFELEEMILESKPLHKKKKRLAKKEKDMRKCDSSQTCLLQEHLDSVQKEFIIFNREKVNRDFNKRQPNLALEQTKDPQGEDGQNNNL
T9 sequence (Q9BVS4 whole entry): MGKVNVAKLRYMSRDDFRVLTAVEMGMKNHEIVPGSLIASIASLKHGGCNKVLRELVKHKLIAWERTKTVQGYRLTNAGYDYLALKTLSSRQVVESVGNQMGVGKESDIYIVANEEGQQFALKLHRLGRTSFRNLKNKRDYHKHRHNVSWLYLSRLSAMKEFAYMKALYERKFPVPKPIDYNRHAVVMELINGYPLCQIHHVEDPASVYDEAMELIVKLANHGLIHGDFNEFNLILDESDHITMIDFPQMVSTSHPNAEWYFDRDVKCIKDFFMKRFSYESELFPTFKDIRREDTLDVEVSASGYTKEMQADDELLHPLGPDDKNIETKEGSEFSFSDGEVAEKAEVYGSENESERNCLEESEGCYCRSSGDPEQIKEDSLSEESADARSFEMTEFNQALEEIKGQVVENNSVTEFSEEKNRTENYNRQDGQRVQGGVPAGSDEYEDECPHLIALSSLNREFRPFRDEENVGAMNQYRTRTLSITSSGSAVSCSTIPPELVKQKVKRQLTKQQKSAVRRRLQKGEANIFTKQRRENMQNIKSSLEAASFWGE
T6 sequence (O00750 whole entry): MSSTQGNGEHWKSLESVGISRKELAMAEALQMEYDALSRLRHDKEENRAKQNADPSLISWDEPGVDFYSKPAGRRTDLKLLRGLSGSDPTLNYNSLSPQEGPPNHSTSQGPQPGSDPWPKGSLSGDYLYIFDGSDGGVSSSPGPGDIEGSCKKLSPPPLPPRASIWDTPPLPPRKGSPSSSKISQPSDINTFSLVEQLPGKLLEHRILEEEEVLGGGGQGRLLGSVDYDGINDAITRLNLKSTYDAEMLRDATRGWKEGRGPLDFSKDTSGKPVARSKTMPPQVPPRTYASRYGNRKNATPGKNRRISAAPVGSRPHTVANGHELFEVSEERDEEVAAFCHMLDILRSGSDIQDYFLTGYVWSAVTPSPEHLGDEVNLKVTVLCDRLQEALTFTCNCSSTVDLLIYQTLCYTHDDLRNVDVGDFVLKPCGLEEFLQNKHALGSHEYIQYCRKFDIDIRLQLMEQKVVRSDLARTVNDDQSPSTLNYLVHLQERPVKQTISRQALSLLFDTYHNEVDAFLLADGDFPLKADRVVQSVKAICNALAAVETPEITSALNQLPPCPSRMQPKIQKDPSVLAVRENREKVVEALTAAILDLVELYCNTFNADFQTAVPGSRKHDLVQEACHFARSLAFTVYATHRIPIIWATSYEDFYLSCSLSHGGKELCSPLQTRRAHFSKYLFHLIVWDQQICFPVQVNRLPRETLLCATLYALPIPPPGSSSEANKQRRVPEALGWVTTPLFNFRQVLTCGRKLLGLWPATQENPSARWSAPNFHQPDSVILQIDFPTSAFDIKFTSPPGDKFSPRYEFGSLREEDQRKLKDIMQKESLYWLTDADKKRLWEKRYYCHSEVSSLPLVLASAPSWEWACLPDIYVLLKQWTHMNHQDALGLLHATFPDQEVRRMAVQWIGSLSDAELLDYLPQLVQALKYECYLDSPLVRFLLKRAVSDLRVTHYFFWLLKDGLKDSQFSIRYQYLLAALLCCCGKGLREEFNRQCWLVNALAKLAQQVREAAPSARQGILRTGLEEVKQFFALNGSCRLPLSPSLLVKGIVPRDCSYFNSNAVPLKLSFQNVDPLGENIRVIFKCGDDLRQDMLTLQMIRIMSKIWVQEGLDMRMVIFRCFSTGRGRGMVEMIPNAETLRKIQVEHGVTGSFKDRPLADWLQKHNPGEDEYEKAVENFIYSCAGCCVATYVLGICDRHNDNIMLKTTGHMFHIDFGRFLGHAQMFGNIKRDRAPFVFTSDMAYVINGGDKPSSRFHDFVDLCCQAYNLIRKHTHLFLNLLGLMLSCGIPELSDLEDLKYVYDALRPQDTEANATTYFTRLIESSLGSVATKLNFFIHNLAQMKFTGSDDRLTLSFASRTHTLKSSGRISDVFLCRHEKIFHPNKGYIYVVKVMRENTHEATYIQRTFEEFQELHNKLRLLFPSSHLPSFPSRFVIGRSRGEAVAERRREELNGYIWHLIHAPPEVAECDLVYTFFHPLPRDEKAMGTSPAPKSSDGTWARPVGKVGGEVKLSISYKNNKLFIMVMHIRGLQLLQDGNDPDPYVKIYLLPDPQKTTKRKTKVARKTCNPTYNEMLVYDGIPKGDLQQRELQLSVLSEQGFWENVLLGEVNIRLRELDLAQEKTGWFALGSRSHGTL
T8 sequence (Q86Y07 whole entry): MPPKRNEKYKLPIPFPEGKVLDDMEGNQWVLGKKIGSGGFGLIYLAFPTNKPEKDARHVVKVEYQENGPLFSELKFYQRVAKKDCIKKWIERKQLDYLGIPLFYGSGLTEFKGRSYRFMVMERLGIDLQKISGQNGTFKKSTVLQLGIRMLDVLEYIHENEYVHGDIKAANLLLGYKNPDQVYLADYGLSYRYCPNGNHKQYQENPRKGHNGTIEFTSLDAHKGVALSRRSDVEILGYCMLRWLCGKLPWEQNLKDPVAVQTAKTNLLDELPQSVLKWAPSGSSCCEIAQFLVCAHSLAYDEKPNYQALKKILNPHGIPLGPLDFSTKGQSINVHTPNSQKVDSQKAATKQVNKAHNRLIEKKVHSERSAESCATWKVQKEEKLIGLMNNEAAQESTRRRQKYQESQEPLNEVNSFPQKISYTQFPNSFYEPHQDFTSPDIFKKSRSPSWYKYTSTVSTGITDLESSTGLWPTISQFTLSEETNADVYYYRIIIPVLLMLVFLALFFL
T2 sequence (Q02763 23-1124): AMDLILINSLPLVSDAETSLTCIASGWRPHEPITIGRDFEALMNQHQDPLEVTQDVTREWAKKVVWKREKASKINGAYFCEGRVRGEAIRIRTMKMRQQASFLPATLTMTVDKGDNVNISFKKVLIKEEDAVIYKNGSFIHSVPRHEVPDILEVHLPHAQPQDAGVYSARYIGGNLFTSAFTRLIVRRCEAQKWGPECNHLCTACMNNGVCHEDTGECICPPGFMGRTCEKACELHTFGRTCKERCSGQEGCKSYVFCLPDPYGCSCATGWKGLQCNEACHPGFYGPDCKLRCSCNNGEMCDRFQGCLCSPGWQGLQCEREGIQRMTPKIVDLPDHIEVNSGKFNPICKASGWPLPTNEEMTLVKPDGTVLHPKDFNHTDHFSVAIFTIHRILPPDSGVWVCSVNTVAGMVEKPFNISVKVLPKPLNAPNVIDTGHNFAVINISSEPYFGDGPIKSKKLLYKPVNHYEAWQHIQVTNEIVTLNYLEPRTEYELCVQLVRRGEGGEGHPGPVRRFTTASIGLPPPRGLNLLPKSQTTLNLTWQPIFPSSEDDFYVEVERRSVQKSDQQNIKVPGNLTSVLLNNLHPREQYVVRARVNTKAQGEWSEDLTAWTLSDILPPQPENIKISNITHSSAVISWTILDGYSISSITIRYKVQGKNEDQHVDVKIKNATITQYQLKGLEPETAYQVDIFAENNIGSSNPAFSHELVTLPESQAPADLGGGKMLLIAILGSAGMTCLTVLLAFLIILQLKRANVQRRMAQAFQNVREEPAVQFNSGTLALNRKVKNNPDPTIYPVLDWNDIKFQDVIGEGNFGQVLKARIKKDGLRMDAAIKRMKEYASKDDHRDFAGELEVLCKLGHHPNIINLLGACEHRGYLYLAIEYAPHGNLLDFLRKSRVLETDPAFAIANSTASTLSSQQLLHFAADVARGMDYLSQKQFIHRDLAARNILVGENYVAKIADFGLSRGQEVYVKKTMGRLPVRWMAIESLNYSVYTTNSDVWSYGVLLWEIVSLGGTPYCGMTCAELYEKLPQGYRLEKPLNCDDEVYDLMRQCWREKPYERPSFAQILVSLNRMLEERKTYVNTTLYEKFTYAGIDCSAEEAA
T5 sequence (Q9BQI3 whole entry): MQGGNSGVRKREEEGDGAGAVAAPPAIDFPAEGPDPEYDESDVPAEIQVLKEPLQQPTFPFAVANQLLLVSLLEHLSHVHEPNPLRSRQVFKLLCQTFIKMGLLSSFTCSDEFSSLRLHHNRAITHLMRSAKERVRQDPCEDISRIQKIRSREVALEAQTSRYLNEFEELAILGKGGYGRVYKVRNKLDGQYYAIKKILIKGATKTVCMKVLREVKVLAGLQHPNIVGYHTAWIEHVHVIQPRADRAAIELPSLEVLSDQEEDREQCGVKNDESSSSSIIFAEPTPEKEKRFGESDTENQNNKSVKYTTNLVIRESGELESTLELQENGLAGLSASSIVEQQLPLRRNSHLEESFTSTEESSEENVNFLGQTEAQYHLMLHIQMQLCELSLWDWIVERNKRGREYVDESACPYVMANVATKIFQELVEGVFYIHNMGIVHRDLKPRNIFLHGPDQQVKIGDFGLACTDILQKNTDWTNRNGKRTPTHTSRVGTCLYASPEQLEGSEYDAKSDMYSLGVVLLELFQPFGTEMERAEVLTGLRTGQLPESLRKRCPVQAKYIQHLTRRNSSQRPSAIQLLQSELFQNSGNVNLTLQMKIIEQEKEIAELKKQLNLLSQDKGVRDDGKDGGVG

On to `Cc1cc(NC(=O)[C@H](O)c2cccc(F)c2)ccc1-c1cn(C)c2ncnc(N)c12` [Compound 11, (R)-N-(4-(4-amino-7-methyl-7H-pyrrolo[2,3-d]pyrimidin-5-yl)-3-methylphenyl)-2-(3-fluorophenyl)-2-hydroxy acetamide], for which, in the experiment with FLT3(ITD,F691L) (1000 nM), the “% Control” value amounted to 100%. For the same molecule, the remaining binding at 1 µM stood at 34% on NEK5; 14% on TIE2; 28% at YANK1; 99% at PIP5K1C; 49% on EIF2AK1; 27% on PIK3C2B. The remaining binding at 1 µM is 57% at FLT3-autoinhibited; 26% on VRK2; 20% on RIOK2; 35% at LTK; 26% on FLT3(K663Q).

Turning to `Cc1nc(N)c2c(-c3ccc(NC(=O)[C@H](O)c4cccc(C(F)(F)F)c4)cc3C)cn(C)c2n1` [Compound 26], the “% Control” value is recorded as 41% in the experiment on FLT3(ITD,F691L) (100 nM) and 42% in the experiment with FLT3(ITD,F691L) (1000 nM). For the same molecule, the remaining binding at 0.1 µM is 100% at NEK5 (100 nM); 100% at TIE2 (100 nM); 96% on YANK1 (100 nM); 100% at PIP5K1C (100 nM); 89% on EIF2AK1 (100 nM); 100% at PIK3C2B (100 nM). In addition, the remaining binding at 0.1 µM came to 100% at FLT3-autoinhibited (100 nM); 94% on VRK2 (100 nM); 91% at RIOK2 (100 nM); 98% on LTK (100 nM); 51% at FLT3(K663Q) (100 nM). The remaining binding at 1 µM at NEK5 was determined as 96%; at TIE2, 65%; at YANK1 it was 67%; on PIP5K1C it was 91%; at EIF2AK1, 78%; on PIK3C2B, 78%. The remaining binding at 1 µM at FLT3-autoinhibited is 65%; at VRK2, 78%; on RIOK2, 92%; at LTK, 22%; at FLT3(K663Q) it was 20%.

With `Cc1nc(N)c2c(-c3ccc(NC(=O)[C@H](O)c4cccc(F)c4)cc3C)cn(C)c2n1` [Compound 24], the “% Control” value in the experiment with FLT3(ITD,F691L) (1000 nM) was 63%. Further, the remaining binding at 1 µM on NEK5 worked out at 100%; on TIE2, 100%; on YANK1 it was 94%; on PIP5K1C, 34%; at EIF2AK1, 73%; at PIK3C2B, 100%. Besides, the remaining binding at 1 µM at FLT3-autoinhibited was determined as 100%; at VRK2, 100%; on RIOK2, 89%; at LTK, 100%; at FLT3(K663Q) it was 83%.
